Results on eight molecules are retold here after patent US9499485B2, “Compounds that are S1P modulating agents and/or ATX modulating agents” (BIOGEN MA INC., priority 2012, dated 2016).

Assay [1] has as its target T1, human S1P4 (Homo sapiens, UniProt O95977).
T1 construct: host or cells: recombinant CHEM cells
T1 sequence (O95977 1-384): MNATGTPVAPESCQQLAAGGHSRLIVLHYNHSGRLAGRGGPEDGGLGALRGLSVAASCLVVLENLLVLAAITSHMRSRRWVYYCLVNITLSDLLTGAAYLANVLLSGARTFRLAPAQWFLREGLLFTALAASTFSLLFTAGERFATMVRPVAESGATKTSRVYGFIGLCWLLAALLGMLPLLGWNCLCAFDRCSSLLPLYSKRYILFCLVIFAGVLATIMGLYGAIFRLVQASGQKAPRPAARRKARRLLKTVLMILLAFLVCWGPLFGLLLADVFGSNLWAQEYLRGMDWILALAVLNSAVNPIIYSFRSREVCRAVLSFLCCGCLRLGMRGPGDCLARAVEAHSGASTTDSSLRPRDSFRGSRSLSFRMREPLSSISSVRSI
In words: S1P receptor calcium flux assay, antagonist format (S1P4 antagonist activity). The class given is cell-based. The following applies: calcium mobilization, recombinant CHEM cells expressing human S1P4, stimulated with EC80 of reference agonist. The protocol: Compounds that are not specific for a particular S1P receptor can cause undesirable side effects. Accordingly, compounds are tested to identify those that are specific. Accordingly, the test compounds are tested in a calcium mobilization assay/S1P receptor activity assay. The procedure is essentially as described in Davis et al. (2005) Journal of Biological Chemistry, vol. 280, pp. 9833-9841, which is incorporated by reference in its entirety with the following modifications. Calcium mobilization assays are performed in recombinant CHEM cells expressing human S1P1, S1P2, S1P3, S1P4, or S1P5 purchased from Millipore (Billerica, Mass.). To detect free intracellular calcium, S1P1, S1P2, S1P3, S1P4, or S1P5 cells are loaded with FLIPR Calcium 4 dye from Molecular Devices (Sunnyvale, Calif.). Cells are imaged for calcium mobilization using a FLIPR^TETRA equipped with a 96-well dispense head.
Agonist percentage activation determinations were obtained by assaying sample compounds and referencing the Emax control for each receptor profiled. Antagonist percentage inhibition determinations were obtained by assaying sample compounds and referencing the control EC80 wells for each receptor profiled.
Sample compounds were plated in an eight-point, four-fold dilution series in duplicate with a top concentration of 10 μM. The concentrations described here reflect the final concentration of the compounds during the antagonist assay. During the agonist assay the compound concentrations were 1.25 fold higher to allow for the final desired concentration to be achieved with further dilution by EC80 of reference agonists during the antagonist assay.
Reference agonists were handled as mentioned above serving as assay control. The reference agonists were handled as described above for Emax.
Assay was read for 180 seconds using the FLIPR^TETRA (This assay run added sample compounds and reference agonist to respective wells). At the completion of the first “Single Addition” assay run, assay plate was removed from the FLIPR^TETRA and placed at 25° C. for seven (7) minutes.
Using the EC80 values determined during the agonist assay, stimulated all pre-incubated sample compound and reference antagonist (if applicable) wells with EC80 of reference agonist. Read for 180 seconds using the FLIPR^TETRA (This assay added reference agonist to respective wells—then fluorescence measurements were collected to calculate percentage inhibition values).
On the technique in general: Calcium flux is commonly read through the fluorescence of an indicator in the cells.

Assay [2] concerns the target T2, Human ATX protein (Homo sapiens, UniProt Q13822).
T2 construct: made in house
Kind of assay: ATX biochemical FRET assay with FS-3 substrate. The following applies: FS-3 2 μM, ATX 1.0 μg/mL, binned table, read-out: IC50 (μm). The text has this:
ATX (Autotaxin) is a 125 KDa glycoprotein with lysophospholipase D (LPLD) activity that generates the bioactive lipid lysophosphatidic acid (LPA) from lysophosphatidylcholine (LPC). The ATX biochemical assay utilizes a FRET (fluorescence resonance energy transfer) technology platform. The fluorescence signal of FRET substrate FS-3 is quenched due to intra-molecular FRET of a fluorophore to a non-fluorescing quencher (Ferguson, C. G., et al., Org. Lett. 2006 May 11; 8(10): 2023-2026, which is incorporated by reference in its entirety). ATX catalyzes the hydrolysis of the substrate which separates the dabsyl quencher from the fluorescein reporter, which becomes fluorescent. The reaction is monitored by a SpectraMax M5 (Molecular Devices, Sunnyvale, Calif.) with at excitation wavelength 485 nm and emission wavelength 535 nm.
2×ATX assay buffer: 100 mM Tris, 280 mM NaCl, 10 mM KCl, 2 mM CaCl2, 2 mM MgCl2, pH 7.4.
Human ATX protein: expressed and purified in house. Stored at −80° C.
Substrate FS-3 (Echelon, L-2000): 100 μg in 77.74 μL H2O (1 mM stock), stored at −20° C.
Compound dilution—All compounds were provided at 10 mM in 100% DMSO. In the first well, 2 μL of 10 mM compound was added to 78 μL of DMSO (1:40 dilution). In subsequent wells 3-fold dilution (total 10 dilutions) were performed.
1×ATX assay buffer was made up with a final concentration of 1 mg/mL fatty acid free-BSA using 2×ATX assay buffer, 10 mg/ml fatty acid free-BSA and ddH2O.
ATX protein was diluted with 1×ATX assay buffer to a concentration of 1.32 μg/mL (1.32×). 38 μL was added per well to the assay plate. The final concentration of ATX in the reaction as 1.0 μg/mL.
2 μL per well of compounds was transferred to provide the desired concentration. The plate was centrifuged, then incubated at room temperature for 30 minutes on the shaker.
FS-3 was diluted with 1×ATX assay buffer to a concentration of FS-3 of 10 μM (5×). Then, 10 μL was added per well to the assay plate. The final concentration of FS-3 in the reaction was 2 μM. The plate was centrifuged. The plate was kept shaking at room temperature for 2 hours. Because FS-3 substrate is light sensitive, plates were kept covered and protected from light.
Fluorescence was measured using SpectraMax M5 (excitation at 485 nm/emission at 538 nm, top read).

The structures appear in SMILES notation.

In the case of `CCCCCCCOc1ccc2cccc(CN3CCC(C(=O)O)CC3)c2c1` [Example 30, 1-((7-(heptyloxy)naphthalen-1-yl)methyl)piperidine-4-carboxylic acid], the IC50 (usually the point on the concentration scale where inhibition reaches its midpoint) was at most 5 µM in assay [1] and above 5 µM in assay [2].

With `CC(C)(C)[C@H]1CC[C@H](Oc2ccc3cccc(CN4CCC(C(=O)O)CC4)c3c2)CC1` [Example 29, 1-((7-((trans-4-(tert-butyl)cyclohexyl)oxy)naphthalen-1-yl)methyl)piperidine-4-carboxylic acid], the IC50 in assay [1] was at most 5 µM; in assay [2], above 5 µM.

Turning to `CC(C)(C)[C@H]1CC[C@H](Oc2ccc3c(CN4CCC(CC(=O)O)CC4)cccc3c2)CC1` [Example 33, 2-(1-((6-((trans-4-(tert-butyl)cyclohexyl)oxy)naphthalen-1-yl)methyl)piperidin-4-yl)acetic acid], the figures for the IC50 in assay [1] and in assay [2] were at most 5 µM and above 5 µM, respectively.

`CCCCCCCOc1ccc2c(CN3CCC(C(=O)O)CC3)cccc2c1` [Example 32, 1-((6-(heptyloxy)naphthalen-1-yl)methyl)piperidine-4-carboxylic acid]: the IC50 in assay [1] was at most 5 µM; in assay [2], above 5 µM.

`CCCCCCCOc1ccc2c(CN3CCC(CC(=O)O)CC3)cccc2c1` [Example 34, 2-(1-((6-(heptyloxy)naphthalen-1-yl)methyl)piperidin-4-yl)acetic acid]: the IC50 is at most 5 µM in assay [1] and above 5 µM in assay [2].

As to `CC(C)(C)[C@H]1CC[C@H](Oc2ccc3c(CN4CCC(C(=O)O)CC4)cccc3c2)CC1` [Example 31, 1-((6-((trans-4-(tert-butyl)cyclohexyl)oxy)naphthalen-1-yl)methyl)piperidine-4-carboxylic acid], the IC50 in assay [1] is at most 5 µM.

Regarding `C[C@H]1CC[C@@H](Oc2ccc3c(CNCCCCC(=O)O)cccc3c2C(F)(F)F)CC1` [Example 9, 5-(((6-((cis-4-methylcyclohexyl)oxy)-5-(trifluoromethyl)naphthalen-1-yl)methyl)amino)pentanoic acid], in assay [2], the IC50 fell in the range of 0.5 to 5 µM.

Take `O=C(O)C1(NCc2cccc3c(C(F)(F)F)c(O[C@H]4CC[C@@H](C(F)(F)F)CC4)ccc23)CCCCC1` [Example 15, 1-(((5-(trifluoromethyl)-6-((cis-4-(trifluoromethyl)cyclohexyl)oxy)naphthalen-1-yl)methyl)amino)cyclohexanecarboxylic acid]: the IC50 in assay [2] is above 5 µM.
